pKi: −log10 of the molar value. Calls of active or inactive are those of the source. The rule behind the calls is not given here.
Key:
[1] = molecular target: Sodium-dependent serotonin transporter (Rattus norvegicus, UniProt P31652); experiment: Displacement of [3H]citalopram from SERT in rat cerebral cortex by liquid scintillation counting; type: tissue-based
Mus musculus [2] = experiment: Reduction of 8-OH-DPAT-induced hypothermia in Swiss albino mouse at 20 mg/kg, ip administered 45 mins prior 8-OH-DPAT challenge measured after 60 mins by inducible hypothermia test; type: functional, organism-based; parameters: dose 20 mg/kg
Mus musculus [3] = experiment: Reduction of 8-OH-DPAT-induced hypothermia in Swiss albino mouse at 20 mg/kg, ip administered 45 mins prior 8-OH-DPAT challenge measured after 30 mins by inducible hypothermia test; type: functional, organism-based; parameters: dose 20 mg/kg
[4] = molecular target: T1, 5-hydroxytryptamine receptor 1A (Rattus norvegicus, UniProt P19327); experiment: Displacement of [3H]8-OH-DPAT from 5-HT1A receptor in rat hippocampus; type: tissue-based
T1 sequence (P19327 whole entry): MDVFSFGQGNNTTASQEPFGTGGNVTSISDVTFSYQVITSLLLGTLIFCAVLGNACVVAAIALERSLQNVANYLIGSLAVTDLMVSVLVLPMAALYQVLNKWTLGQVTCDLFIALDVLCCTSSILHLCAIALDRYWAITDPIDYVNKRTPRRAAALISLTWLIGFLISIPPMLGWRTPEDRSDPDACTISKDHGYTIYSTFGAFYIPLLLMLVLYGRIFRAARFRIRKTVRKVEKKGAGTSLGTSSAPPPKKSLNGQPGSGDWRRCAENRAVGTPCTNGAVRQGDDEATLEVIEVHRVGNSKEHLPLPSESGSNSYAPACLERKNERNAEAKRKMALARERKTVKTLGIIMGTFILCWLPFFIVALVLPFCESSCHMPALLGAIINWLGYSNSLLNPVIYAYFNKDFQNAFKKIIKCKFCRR

Mus musculus [5] = experiment: Reduction of 8-OH-DPAT-induced hypothermia in Swiss albino mouse at 20 mg/kg, ip administered 45 mins prior 8-OH-DPAT challenge measured after 45 mins by inducible hypothermia test; type: functional, organism-based; parameters: dose 20 mg/kg
Mus musculus [6] = experiment: Reduction of 8-OH-DPAT-induced hypothermia in Swiss albino mouse at 20 mg/kg, ip administered 45 mins prior 8-OH-DPAT challenge measured after 15 mins by inducible hypothermia test; type: functional, organism-based; parameters: dose 20 mg/kg
Mus musculus [7] = experiment: Effect on hypothermia in Swiss albino mouse assessed as change in rectal body temperature at 2.5 mg/kg, ip after 90 mins by inducible hypothermia test; type: functional, organism-based; parameters: dose 2.5 mg/kg
Mus musculus [8] = experiment: Effect on hypothermia in Swiss albino mouse assessed as change in rectal body temperature at 5 mg/kg, ip dosed 15 mins after 0.1 mg/kg, sc WAY 100635 challenge measured after 60 mins by inducible hypothermia test; type: functional, organism-based
Mus musculus [9] = experiment: Effect on hypothermia in Swiss albino mouse assessed as change in rectal body temperature at 2.5 mg/kg, ip after 60 mins by inducible hypothermia test; type: functional, organism-based; parameters: dose 2.5 mg/kg
Mus musculus [10] = experiment: Antidepressant activity in Swiss albino mouse assessed as total immobility time at 5 mg/kg, ip administered 30 mins before test measured 6 mins test session after 2 mins habituation period by forced swimming test; type: functional, organism-based; parameters: dose 5 mg/kg
Mus musculus [11] = experiment: Effect on hypothermia in Swiss albino mouse assessed as change in rectal body temperature at 5 mg/kg, ip after 90 mins by inducible hypothermia test; type: functional, organism-based; parameters: dose 5 mg/kg
Mus musculus [12] = experiment: Antidepressant activity in Swiss albino mouse assessed as total immobility time at 2.5 mg/kg, ip administered 30 mins before test measured 6 mins test session after 2 mins habituation period by forced swimming test; type: functional, organism-based; parameters: dose 2.5 mg/kg
Mus musculus [13] = experiment: Effect on hypothermia in Swiss albino mouse assessed as change in rectal body temperature at 5 mg/kg, ip after 60 mins by inducible hypothermia test; type: functional, organism-based; parameters: dose 5 mg/kg
Mus musculus [14] = experiment: Effect on hypothermia in Swiss albino mouse assessed as change in rectal body temperature at 5 mg/kg, ip after 30 mins by inducible hypothermia test; type: functional, organism-based; parameters: dose 5 mg/kg
Mus musculus [15] = experiment: Effect on hypothermia in Swiss albino mouse assessed as change in rectal body temperature at 2.5 mg/kg, ip after 120 mins by inducible hypothermia test; type: functional, organism-based; parameters: dose 2.5 mg/kg
Mus musculus [16] = experiment: Effect on hypothermia in Swiss albino mouse assessed as change in rectal body temperature at 2.5 mg/kg, ip after 30 mins by inducible hypothermia test; type: functional, organism-based; parameters: dose 2.5 mg/kg
Mus musculus [17] = experiment: Effect on hypothermia in Swiss albino mouse assessed as change in rectal body temperature at 5 mg/kg, ip dosed 15 mins after 0.1 mg/kg, sc WAY 100635 challenge measured after 30 mins by inducible hypothermia test; type: functional, organism-based
Mus musculus [18] = experiment: Effect on hypothermia in Swiss albino mouse assessed as change in rectal body temperature at 5 mg/kg, ip after 120 mins by inducible hypothermia test; type: functional, organism-based; parameters: dose 5 mg/kg
Mus musculus [19] = experiment: Effect on hypothermia in Swiss albino mouse assessed as change in rectal body temperature at 20 mg/kg, ip dosed 15 mins after 0.1 mg/kg, sc WAY 100635 challenge measured after 30 mins by inducible hypothermia test; type: functional, organism-based
Mus musculus [20] = experiment: Effect on hypothermia in Swiss albino mouse assessed as change in rectal body temperature at 20 mg/kg, ip after 60 mins by inducible hypothermia test; type: functional, organism-based; parameters: dose 20 mg/kg
Mus musculus [21] = experiment: Effect on hypothermia in Swiss albino mouse assessed as change in rectal body temperature at 20 mg/kg, ip dosed 15 mins after 0.1 mg/kg, sc WAY 100635 challenge measured after 60 mins by inducible hypothermia test; type: functional, organism-based
Mus musculus [22] = experiment: Antidepressant activity in Swiss albino mouse assessed as total immobility time at 10 mg/kg, ip administered 30 mins before test measured 6 mins test session after 2 mins habituation period by forced swimming test; type: functional, organism-based; parameters: dose 10 mg/kg
Mus musculus [23] = experiment: Effect on hypothermia in Swiss albino mouse assessed as change in rectal body temperature at 20 mg/kg, ip after 30 mins by inducible hypothermia test; type: functional, organism-based; parameters: dose 20 mg/kg
Mus musculus [24] = experiment: Effect on hypothermia in Swiss albino mouse assessed as change in rectal body temperature at 10 mg/kg, ip after 90 mins by inducible hypothermia test; type: functional, organism-based; parameters: dose 10 mg/kg
Mus musculus [25] = experiment: Effect on hypothermia in Swiss albino mouse assessed as change in rectal body temperature at 10 mg/kg, ip after 120 mins by inducible hypothermia test; type: functional, organism-based; parameters: dose 10 mg/kg
Mus musculus [26] = experiment: Effect on hypothermia in Swiss albino mouse assessed as change in rectal body temperature at 20 mg/kg, ip after 120 mins by inducible hypothermia test; type: functional, organism-based; parameters: dose 20 mg/kg
Mus musculus [27] = experiment: Effect on hypothermia in Swiss albino mouse assessed as change in rectal body temperature at 10 mg/kg, ip after 30 mins by inducible hypothermia test; type: functional, organism-based; parameters: dose 10 mg/kg
Mus musculus [28] = experiment: Effect on hypothermia in Swiss albino mouse assessed as change in rectal body temperature at 10 mg/kg, ip after 60 mins by inducible hypothermia test; type: functional, organism-based; parameters: dose 10 mg/kg
Mus musculus [29] = experiment: Effect on hypothermia in Swiss albino mouse assessed as change in rectal body temperature at 20 mg/kg, ip after 90 mins by inducible hypothermia test; type: functional, organism-based; parameters: dose 20 mg/kg
Mus musculus [30] = experiment: Antidepressant activity in Swiss albino mouse assessed as total immobility time at 20 mg/kg, ip administered 30 mins before test measured 6 mins test session after 2 mins habituation period by forced swimming test; type: functional, organism-based; parameters: dose 20 mg/kg
Mus musculus [31] = experiment: Reduction of 8-OH-DPAT-induced hypothermia in Swiss albino mouse at 0.1 mg/kg, ip administered 45 mins prior 8-OH-DPAT challenge measured after 15 mins by inducible hypothermia test; type: functional, organism-based; parameters: dose 0.1 mg/kg
Mus musculus [32] = experiment: Reduction of 8-OH-DPAT-induced hypothermia in Swiss albino mouse at 0.1 mg/kg, ip administered 45 mins prior 8-OH-DPAT challenge measured after 45 mins by inducible hypothermia test; type: functional, organism-based; parameters: dose 0.1 mg/kg
Mus musculus [33] = experiment: Effect on hypothermia in Swiss albino mouse assessed as change in rectal body temperature at 0.1 mg/kg, ip after 60 mins by inducible hypothermia test; type: functional, organism-based; parameters: dose 0.1 mg/kg
Mus musculus [34] = experiment: Effect on hypothermia in Swiss albino mouse assessed as change in rectal body temperature at 0.1 mg/kg, ip after 30 mins by inducible hypothermia test; type: functional, organism-based; parameters: dose 0.1 mg/kg
Mus musculus [35] = experiment: Reduction of 8-OH-DPAT-induced hypothermia in Swiss albino mouse at 0.1 mg/kg, ip administered 45 mins prior 8-OH-DPAT challenge measured after 60 mins by inducible hypothermia test; type: functional, organism-based; parameters: dose 0.1 mg/kg
Mus musculus [36] = experiment: Effect on hypothermia in Swiss albino mouse assessed as change in rectal body temperature at 0.1 mg/kg, ip after 120 mins by inducible hypothermia test; type: functional, organism-based; parameters: dose 0.1 mg/kg
Mus musculus [37] = experiment: Effect on hypothermia in Swiss albino mouse assessed as change in rectal body temperature at 0.1 mg/kg, ip after 90 mins by inducible hypothermia test; type: functional, organism-based; parameters: dose 0.1 mg/kg
Mus musculus [38] = experiment: Reduction of 8-OH-DPAT-induced hypothermia in Swiss albino mouse at 0.1 mg/kg, ip administered 45 mins prior 8-OH-DPAT challenge measured after 30 mins by inducible hypothermia test; type: functional, organism-based; parameters: dose 0.1 mg/kg
Mus musculus [39] = species on record: Mus musculus; settings: Swiss albino, 10 mg/kg
Description: Effect on hypothermia in Swiss albino mouse assessed as change in rectal body temperature at 10 mg/kg, ip dosed 15 mins after 0.1 mg/kg, sc WAY 100635 challenge measured after 60 mins by inducible hypothermia test

Mus musculus [40] = species on record: Mus musculus; settings: Swiss albino, 10 mg/kg; remark: listed apart in the source
Description: Effect on hypothermia in Swiss albino mouse assessed as change in rectal body temperature at 10 mg/kg, ip dosed 15 mins after 0.1 mg/kg, sc WAY 100635 challenge measured after 30 mins by inducible hypothermia test

Sodium-dependent serotonin transporter, sequence (P31652 whole entry): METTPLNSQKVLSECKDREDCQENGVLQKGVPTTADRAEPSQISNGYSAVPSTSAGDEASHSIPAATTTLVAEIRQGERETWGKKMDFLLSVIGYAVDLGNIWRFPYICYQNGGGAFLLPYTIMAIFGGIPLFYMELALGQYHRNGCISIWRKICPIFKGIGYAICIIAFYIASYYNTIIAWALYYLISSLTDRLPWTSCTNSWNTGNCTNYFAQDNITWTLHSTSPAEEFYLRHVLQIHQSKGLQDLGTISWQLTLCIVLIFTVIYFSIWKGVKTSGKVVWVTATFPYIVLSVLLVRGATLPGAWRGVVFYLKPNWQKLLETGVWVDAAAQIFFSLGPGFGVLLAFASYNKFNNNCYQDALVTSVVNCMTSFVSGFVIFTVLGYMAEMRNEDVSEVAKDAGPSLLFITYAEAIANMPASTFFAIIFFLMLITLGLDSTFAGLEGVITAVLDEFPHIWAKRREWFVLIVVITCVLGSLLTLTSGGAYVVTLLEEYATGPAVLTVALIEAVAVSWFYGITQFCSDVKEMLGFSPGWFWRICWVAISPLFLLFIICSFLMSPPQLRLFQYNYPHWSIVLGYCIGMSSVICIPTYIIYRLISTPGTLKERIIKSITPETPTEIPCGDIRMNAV

O=c1c(-c2ccc(F)cc2)c2n(c(=O)n1CCCCN1CCC(c3c[nH]c4ccccc34)CC1)CCCC2
pKi [1]: 7.33 | deltaT (Mus musculus [2]): -0.6 °C | deltaT (Mus musculus [3]): -1.6 °C | pKi [4]: 7.21 | deltaT (Mus musculus [5]): -1.1 °C | deltaT (Mus musculus [6]): -0.7 °C

Cc1ccccc1-c1c2n(c(=O)n(CCCCN3CCC(c4c[nH]c5ccccc45)CC3)c1=O)CCCC2
pKi [1]: 7.16 | pKi [4]: 6.95

O=c1c(-c2ccc(Cl)cc2)c2n(c(=O)n1CCCCN1CCC(c3c[nH]c4ccccc34)CC1)CCCC2
deltaT (Mus musculus [7]): -0.1 °C | deltaT (Mus musculus [8]): -0.1 °C | deltaT (Mus musculus [9]): -0.4 °C | pKi [1]: 7.36 | Activity (Mus musculus [10]): inactive | deltaT (Mus musculus [11]): -0.4 °C | pKi [4]: 7.31 | Activity (Mus musculus [12]): inactive | deltaT (Mus musculus [13]): -0.5 °C | deltaT (Mus musculus [14]): -1 °C | deltaT (Mus musculus [15]): -0.1 °C | deltaT (Mus musculus [16]): -0.3 °C | deltaT (Mus musculus [17]): -0.2 °C | deltaT (Mus musculus [18]): -0.3 °C

Cc1[nH]c2ccccc2c1C1CCN(CCCCn2c(=O)c(-c3ccccc3F)c3n(c2=O)CCCC3)CC1
pKi [1]: 5.89 | pKi [4]: 6.52

COc1ccc(-c2c3n(c(=O)n(CCCCN4CCC(c5c[nH]c6ccccc56)CC4)c2=O)CCCC3)cc1
deltaT (Mus musculus [19]): -0.3 °C | deltaT (Mus musculus [20]): -0.9 °C | deltaT (Mus musculus [21]): -0.2 °C | Activity (Mus musculus [22]): inactive | deltaT (Mus musculus [23]): -1.6 °C | pKi [1]: 7.30 | deltaT (Mus musculus [24]): -0.3 °C | deltaT (Mus musculus [25]): -0.2 °C | deltaT (Mus musculus [11]): -0.2 °C | deltaT (Mus musculus [26]): -0.3 °C | pKi [4]: 7.49 | deltaT (Mus musculus [13]): -0.2 °C | deltaT (Mus musculus [14]): -0.6 °C | deltaT (Mus musculus [27]): -0.8 °C | deltaT (Mus musculus [28]): -0.5 °C | deltaT (Mus musculus [29]): -0.5 °C | Activity (Mus musculus [30]): inactive | deltaT (Mus musculus [18]): -0.2 °C

Cc1ccccc1-c1c2n(c(=O)n(CCCCN3CCC(c4c(C)[nH]c5ccccc45)CC3)c1=O)CCCC2
pKi [1]: 6.05 | pKi [4]: 6.19

COc1ccccc1-c1c2n(c(=O)n(CCCCN3CCC(c4c(C)[nH]c5ccccc45)CC3)c1=O)CCCC2
pKi [1]: 5.89 | pKi [4]: 6.50

CC(C)NCC(O)COc1cccc2[nH]ccc12 (stereo not drawn)
deltaT (Mus musculus [8]): -0.1 °C | deltaT (Mus musculus [31]): -0.1 °C | deltaT (Mus musculus [32]): -0.1 °C | deltaT (Mus musculus [33]): -0.1 °C | deltaT (Mus musculus [34]): -0.2 °C | deltaT (Mus musculus [35]): -0.1 °C | deltaT (Mus musculus [36]): -0.1 °C | deltaT (Mus musculus [37]): -0.1 °C | deltaT (Mus musculus [17]): -0.2 °C | deltaT (Mus musculus [38]): -0.1 °C

O=c1c(-c2ccccc2)c2n(c(=O)n1CCCCN1CCC(c3c[nH]c4ccccc34)CC1)CCCC2
pKi [1]: 7.09 | deltaT (Mus musculus [24]): -0.2 °C | deltaT (Mus musculus [25]): -0.1 °C | deltaT (Mus musculus [11]): -0.2 °C | pKi [4]: 7.55 | deltaT (Mus musculus [13]): -0.3 °C | deltaT (Mus musculus [14]): -0.7 °C | deltaT (Mus musculus [27]): -1.1 °C | deltaT (Mus musculus [28]): -0.3 °C | deltaT (Mus musculus [39]): -0.2 °C | deltaT (Mus musculus [40]): -0.5 °C | deltaT (Mus musculus [18]): -0.1 °C

— ChEMBL document CHEMBL1649369, “Novel 4-aryl-pyrido[1,2-c]pyrimidines with dual SSRI and 5-HT(1A) activity. part 3” (Eur J Med Chem, 2011)
